According to patent US20220000894A1, “Substance for treatment or prevention of diseases, method for designing the same, and method for preparing the same” (priority 2018, published 2022):

System: patients with allergic rhinitis
Experiment: Clinical application trial for treatment of allergic rhinitis
Format: in vivo, human
Description: 1. Clinical data: 60 cases (a total number) of outpatients and inpatients with allergic rhinitis were enrolled, and were randomly divided into a treatment group with 30 patients and a control group with 30 patients.
2. Diagnosis criteria: 2 or more clinical symptoms such as sneezing, clear water-like nasal discharge, nasal congestion, and nasal itching, appearing continuously or continually for 1 hour or more every day. It may be accompanied by eye symptoms such as eye itching and conjunctival hyperemia. Common signs often include pale nasal mucosa, edema, and watery nasal discharge. Positive in the allergen skin prick test.
3. […] The patients in the control group orally took loratadine 10 mg per time, once day, for 30 days.
4. […] Total effective rate=cured rate+effective rate.

`CCOC(=O)N1CCC(=C2c3ccc(Cl)cc3CCc3cccnc32)CC1` [loratadine] was tested, and the recurrence after treatment (6-month follow-up / after drug discontinuance) was “allergic symptoms appeared after contact with allergens after drug discontinuance”, the “Effective (number of patients)” value (30 patients per group) was 20 and the “Ineffective (number of patients)” value (30 patients per group) was 10. The “Total effective rate (%) (cured rate + effective rate)” value (30 patients per group) was 66.67%, the “Cured (number of patients)” value (30 patients per group, cured = symptoms and signs disappear for 60 days without recurrence) was 0 and the adverse reactions occurred (control group of 30 patients) was 5 cases.
